Measurements taken from paper PMC11374953, “Heteroaryl derivatives of suvorexant as OX1R selective PET ligand candidates: Cu-mediated ^18F-fluorination of boroxines, in vitro and initial in vivo evaluation” (EJNMMI Research, 2024).

How the values were obtained:
human OX2R = target: T1, human OX2R (Homo sapiens, UniProt O43614); design: method as in PMID 32669442; settings: HEK293T homogenates; data from previous work; read-out: Ki values (nM ± SEM) hOX2R; cited from earlier work
T1 construct: host or cells: HEK293T
T1 sequence (O43614 1-444): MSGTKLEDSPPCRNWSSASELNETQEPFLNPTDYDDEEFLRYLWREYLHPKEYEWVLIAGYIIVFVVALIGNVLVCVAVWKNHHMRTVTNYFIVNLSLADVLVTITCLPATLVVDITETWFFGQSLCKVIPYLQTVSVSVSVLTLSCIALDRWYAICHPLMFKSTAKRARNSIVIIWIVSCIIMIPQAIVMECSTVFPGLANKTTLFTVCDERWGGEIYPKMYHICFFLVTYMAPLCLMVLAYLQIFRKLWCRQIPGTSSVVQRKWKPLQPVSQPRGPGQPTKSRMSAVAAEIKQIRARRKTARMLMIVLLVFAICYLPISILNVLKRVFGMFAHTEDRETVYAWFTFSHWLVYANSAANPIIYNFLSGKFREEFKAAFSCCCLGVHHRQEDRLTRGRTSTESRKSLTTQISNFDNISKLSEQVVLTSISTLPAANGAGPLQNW

human OX1R = target: T2, human OX1R (Homo sapiens, UniProt O43613); design: method as in PMID 32669442; settings: data from previous work, cited from earlier work
T2 construct: host or cells: HEK293T
T2 sequence (O43613 1-425): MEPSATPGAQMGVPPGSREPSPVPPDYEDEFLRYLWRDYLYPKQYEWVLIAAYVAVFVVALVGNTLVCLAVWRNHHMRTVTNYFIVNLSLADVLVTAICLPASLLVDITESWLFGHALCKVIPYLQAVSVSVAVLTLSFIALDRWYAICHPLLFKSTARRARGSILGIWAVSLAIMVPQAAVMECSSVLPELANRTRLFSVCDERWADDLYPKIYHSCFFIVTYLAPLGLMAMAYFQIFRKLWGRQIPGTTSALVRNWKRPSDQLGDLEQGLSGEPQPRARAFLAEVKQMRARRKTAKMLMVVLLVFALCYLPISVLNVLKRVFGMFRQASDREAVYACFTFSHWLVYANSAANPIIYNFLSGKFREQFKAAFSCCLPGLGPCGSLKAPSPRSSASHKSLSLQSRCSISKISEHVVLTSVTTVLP

[1] = Radioligand stability in human plasma and human serum; type: in vitro ADME; settings: 37 °C, up to 120 min, radio-HPLC
Experimental: (§1) The radioligand (1–2 MBq, [^18F]1c or [^18F]1f) in PBS (20 µL) was incubated with human serum, human plasma or rat plasma (400 µL) at 37 °C. Samples (50 µL) were taken at 5, 10, 15, 30, 60 and 120 min, mixed with aqueous TFA (10%, 50 µL) and centrifuged (20,000g, 2 min). The supernatant (20 µL) was analyzed by radio-HPLC.

[2] = Dynamic small animal PET imaging of the rat brain; type: in vivo
Experimental: Small animal PET experiments in rats were performed to allow for an initial comparison in single animals that were injected with [^18F]1c or [^18F[1f alone, after preinjection of suvorexant (1 mg/kg), and after pretreatment with cyclosporine A (25 mg/kg) (Fig. 3). […] Therefore, to elucidate the P-gp-mediated transport of the compounds, specific experiments were performed.
Fig. 3 Time-activity curves and horizontal PET slices of the rat brain after injection of [^18F]1c (A, C) and [^18F]1f (B, D). Single animals were injected with the tracer alone (“control”, blue) compared to animals preinjected with suvorexant (1 mg/kg, 15 min prior to tracer injection, each n = 1; “blocking”, red) or cyclosporine A (25 mg/kg, 30 min prior to tracer injection, each n = 1; green)
Ten- to 13-week-old female CD Sprague–Dawley rats (250–300 g, Charles River) were housed with free access to standard rat chow (Purina) and water at all times. Dynamic small animal PET scans were performed on an Inveon™ microPET scanner (Siemens Healthineers AG, Erlangen, Germany). All rats were continuously anesthetized using isoflurane (2–3% in oxygen, 0.8 L/min) and placed on a heating pad (37 °C) during the PET scan. Rats were injected intravenously in the tail vein with the radioligand in saline (5–15 MBq in 200–300 µL, [^18F]1c or [^18F]1f). Pretreatment with suvorexant (1 mg/kg, 15 min prior to tracer injection) or cyclosporine A (25 mg/kg, […] to tracer injection) was done intravenously. Dynamic PET scans were acquired from 0 to 60 min p.i. and consisted of 23 frames with increasing duration (12 × 10 s, 3 × 1 min, 5 × 5 min and 3 × 10 min). Subsequently, an attenuation scan with a rotating Co-57 point source was performed. The obtained dynamic emission images were subjected to an attenuation and decay correction. After the iterative maximum a posteriori (MAP) estimation for the image reconstruction, regions of interest (ROIs) were drawn for the whole brain. Computational processing of the PET scans was done with the software PMOD (PMOD Technologies LLC). The data obtained were finally converted into values expressed as percent of injected dose per gram (%ID/g).

[3] = Plasma protein binding (MicroSpin G-50 columns); type: in vitro ADME; settings: human plasma, 37 °C, read-out: plasma protein binding (PPB) (converted)
Experimental: The radiotracer (100–200 kBq, [^18F]1c or [^18F]1f) in PBS (2 µL) was incubated with human plasma (100 µL) at 37 °C for 10 min. After preconditioning of the microcolumns according to the instructions of the manufacturer (illustra MicroSpin G-50 columns from GE Healthcare), a sample (40 µL) of was applied to the resin. The microspin tubes were centrifuged (2000g, 2 min) and both, eluate and resin were measured by a γ-counter (Wallac Wizard 1470, PerkinElmer, USA). The PPB was calculated as percentage of bound ligand (cpm of resin) from the total amount of radioactivity (sum of cpm of resin and eluate). Samples from incubation of the radiotracer in saline instead of plasma served as negative control. The mean PPB value was determined from at least two independent experiments each performed in triplicate.

[4] = Radioligand stability in rat plasma; type: in vitro ADME; settings: 37 °C, up to 120 min, radio-HPLC
Experimental: as §1

[5] = Partition coefficient logD7.4 (n-octanol/PBS); type: physicochemical; settings: n-octanol/PBS pH 7.4, mean ± SD
Experimental: Phosphate-buffered saline (PBS, 480 µL, pH 7.4) and n-octanol (500 µL) were placed in an Eppendorf tube. The radioligand (30–50 kBq, [^18F]1c or [^18F]1f) in PBS (20 µL) was added to the tube, vortexed for 1 min and centrifuged (20,000g, 1 min). Three samples (100 µL) from each layer were collected and measured by a γ-counter (Wallac Wizard 1470, PerkinElmer, USA). After the average cpm values from the triplicate measurements of each layer were calculated, the logD7.4 was determined as the logarithm of the ratio of n-octanol (mean cpm) to PBS (mean cpm). The mean logD7.4 value ± standard deviation was determined by at least three independent experiments each performed in triplicates.

[6] = cited from earlier work

For CC[C@H](C)[C@H]1CN(c2nc3cc(Cl)ccc3o2)CCCN1C(=O)c1cc(C)ccc1-n1nccn1 [JH112], the Ki (human OX2R) is given as 54 ± 7 nM, the Ki (human OX1R; HEK293T membranes, read-out: Ki values (nM ± SEM) hOX1R) is given as 0.72 ± 0.08 nM and the “OX1R selectivity Ki(hOX2R)/Ki(hOX1R)” value (human OX1R; Ki for OX2R divided by Ki for OX1R) is given as 75.
With CC[C@H](C)[C@H]1CN(c2nc3ccc([18F])cc3s2)CCCN1C(=O)c1cc(C)ccc1-n1nccn1 [[^18F]1f, {(S)-2-[(S)-sec-butyl]-4-(6-[^18F]fluorobenzo[d]thiazol-2-yl)-1,4-diazepan-1-yl}[5-methyl-2-(2H-1,2,3-triazol-2-yl)phenyl]methanone] the “stability in human plasma” value [1] was “stable over 120 min”, the “stability in human serum” value [1] was “stable over 120 min” and the “brain uptake after pretreatment with cyclosporine A” value ([2]; cyclosporine A 25 mg/kg i.v. prior to tracer, n = 1) was 0.18 %ID/g. The “brain uptake after preinjection of suvorexant” value ([2]; suvorexant 1 mg/kg i.v. 15 min prior to tracer, n = 1) was “not affected”, the “time of maximum brain uptake p.i.” value ([2]; tracer alone i.v.) was 24 s and the maximum brain uptake ([2]; tracer alone i.v., whole brain, n = 1) was 0.15 %ID/g. For the same compound, the fraction unbound at 10 min [3] was 0.23, the “stability in rat plasma” value [4] was “stable over 120 min” and the logD [5] was 2.37.
In the case of Cc1ccc(-n2nccn2)c(C(=O)N2CCN(c3nc4cc(Cl)ccc4o3)CC[C@H]2C)c1 [suvorexant], the “protein-bound fraction in the blood” value [6] is listed as over 99%.
